Assay results taken from patent EP4574147A1, “COMPOSITION FOR PREVENTING, AMELIORATING, OR TREATING CANCER COMPRISING STEPPOGENIN AS ACTIVE INGREDIENT” (Kyungpook National University Industry-Academic Cooperation …, priority 2022, dated 2024).

Assays:
[1] = test system: Lewis lung carcinoma (LLC)-allografted tumor models; assay: Lewis lung carcinoma allograft tumor model with immunohistochemical analysis; format: in vivo, C57BL/6J mice; conditions: for average body weights between the groups during the administration period: intraperitoneal (FIG. 6b)
Description: Six-week-old adult male C57BL/6J mice (SLC, Japan) were used and housed in a specific pathogen-free facility with an individual ventilation system at Kyungpook National University.
To manufacture Lewis lung carcinoma (LLC)-allografted tumor models, LLC cell suspensions (5 × 10^5 cells in 200 µL of serum-free culture medium) were subcutaneously transplanted into the dorsal flank area of 6-week-old male C57BL/6J mice. After inoculating the LLC cells, the mice were administered 17-AAG (25 mg/kg) or steppogenin (2 mg/kg) via intraperitoneal injection at various time points. Next, tumor volumes were measured according to the following formula: V = 0.5 × A × B^2, where A and B represent the longest and shortest dimensions, respectively. Finally, the mice were anesthetized and tissues were collected for further analysis.
For immunohistochemical analysis, collected tumor or tissue samples were fixed in 4% paraformaldehyde and embedded in tissue-freezing medium (Leica, Wetzlar, Germany). Frozen blocks were cut into 10 µm sample sections, blocked with 3% BSA in PBST (0.3% Triton X-100 in PBS), and incubated overnight at 4 °C with appropriate primary antibodies. Primary antibodies were as follows: anti-CD34 (Boster Bio, CA, USA), anti-DLL4 (R&D Systems, MN, USA), anti-pimonidazole (Hypoxyprobe-1, HPI, MA, USA), anti-CD3 (Abcam), anti-CD4 (Invitrogen), and anti-CD8 (Invitrogen). After several washes, the samples were incubated with recommended fluorophore-tagged secondary antibodies for 1 hour at room temperature. Next, cell nuclei were stained using Antifade Mounting Medium containing DAPI (Vector Laboratories, Burlingame, CA). Immunofluorescence images were acquired using a Zeiss confocal microscope (Carl Zeiss, Germany). Next, pimonidazole hydrochloride (60 mg/kg; Hypoxyprobe-1, HPI) was injected intravenously through the tail vein of mice and anesthetized 90 minutes later. Finally, tumor tissues were collected for further analysis.
To determine whether steppogenin induces vascular normalization, T-cell infiltration in tumor tissues was examined.

[2] = test system: HEK293T cells; assay: Cell counting kit-8 assay (cell viability under hypoxic conditions); format: cell-based, human; conditions: hypoxia, compared to vehicle treatment (FIG. 3a)
Description: HEK293T cells were seeded at a density of 5 × 10^3 cells/well in 96-well plates and cultured at 37°C for 24 h. After 24 hours, the natural compounds were diluted in the medium according to the concentration and replaced. Cell viability was determined after exposure to hypoxic conditions for 24 h using the Cell Counting Kit-8 (DOJINDO, Rockville, MD, USA) according to the manufacturer's instructions, and measured using a microplate reader (Infinite M200 Pro; TECAN, Mannedorf, Switzerland) at 450 nm.
To test the inhibitory activity of 70 natural compounds on HIF-1 and DLL4 activity, their cytotoxic effects on immortalized normal cells were first tested under hypoxia conditions. In particular, under these conditions, HEK293T cells were treated with compounds at various concentrations (0.1 to 10 µM).

[3] = test system: HIF-1α; assay: HRE-luciferase dual-luciferase assay (HIF-1α promoter reporter activity); format: cell-based, human
Description: (§1) To perform the HRE-luciferase assay, HEK293T cells were seeded in a 96-well plate at a density of 5×10^3 cells/well and cultured at 37°C. Next, cells were co-transfected with pGL3-HRE-luciferase plasmid and pRL-SV40 Renilla plasmid containing 5 copies of HRE of human VEGF gene using a vivamagic transfection reagent (Vivagen, Seongnam, Korea) (Kwon et al., 2015). After 24 h, cells were pretreated with various concentrations of natural compounds for 1 h and then incubated under hypoxia conditions for 24 h. To perform the DLL4-luciferase assay, EA.hy926 cells were seeded in 24-well plates at a density of 4 × 10^4 cells/well and cultured at 37 °C for 24 h. Cells were co-transfected with pGL3-DLL4 luciferase and pRL-SV40 Renilla plasmids using Lipofectamine 2000 (Invitrogen) and cultured at 37°C for 24 h. Next, the cells were incubated with various concentrations of natural compounds for 1 h and then incubated for 24 h in the presence or absence of VEGF (10 ng/mL). The luminescence of HRE- and DLL4-promoter activities was detected using a microplate reader and the Dual-Luciferase Assay Kit (Promega, Madison, WI, USA) according to the manufacturer's instructions. The luciferase activity of the natural compounds was normalized to Renilla luciferase activity.
To select potential HIF-1α inhibitors, the effects of 70 natural compounds were tested on HIF-1α promoter reporter activity using a dual-luciferase assay.

[4] = test system: HIF-1α; assay: Western blot analysis of HIF-1α protein expression under hypoxia; format: cell-based, human; conditions: for HIF-1α protein levels: dose-dependent, maximum dose 3 µM (FIG. 4a)
Description: (§2) Proteins were extracted from cultured cells using RIPA lysis buffer (Thermo Scientific, Waltham, MA, USA). The protein extracts were separated using SDS-PAGE and transferred to nitrocellulose membranes (Whatman, Maidstone, England). The membranes were blocked with 5% skim milk in Tris-buffered saline containing 0.1% Tween-20 for 1 hour at room temperature. After blocking, the membranes were incubated with specific primary antibodies overnight at 4°C, and then incubated with secondary antibodies for 1 hour at room temperature. Proteins were detected using the Enhanced Chemiluminescence Kit (Bio-Rad, Hercules, CA, USA) according to the manufacturer's instructions. Primary antibodies against HIF-1α (BD Biosciences, San Diego, CA, USA), VEGF (Santa Cruz Biotechnology, Santa Cruz, CA, USA), CXCR4 (Abcam, Cambridge, UK), CA9 (Abcam), DLL4 (Santa Cruz Biotechnology), NOTCH1 (Thermo Scientific), and β-actin (Santa Cruz Biotechnology) were used.
To determine the effect of the selected natural compounds on HIF-1α protein expression, Western blotting was performed on HEK293T cells. […] Accordingly, the effect of five compounds with HIF-1α inhibitory activity on DLL4 reporter activity in ECs was also investigated. […] Therefore, Compound #57 was selected as a potential inhibitor of HIF-1α and DLL4.

[5] = test system: DLL4; assay: DLL4-luciferase dual-luciferase assay in EA.hy926 cells with VEGF; format: cell-based, human
Description: as §1

[6] = test system: DLL4; assay: Western blot analysis of VEGF-induced DLL4 protein level in endothelial cells; format: cell-based, human
Description: as §2

[7] = test system: HEK293T cells; assay: Lactate dehydrogenase cytotoxicity assay; format: cell-based, human; conditions: LDH release, hypoxia 24 h, compared to vehicle treatment (FIG. 3b)
Description: HEK293T cells were seeded at 2 × 10^3 cells/well in 96-well plates and cultured at 37 °C for 24 h. Next, the cells were treated with various concentrations of steppogenin for 24 h under hypoxia conditions. Lactate dehydrogenase (LDH) release values were evaluated using the Cytotoxicity LDH Assay Kit-WST (DOJINDO) according to the manufacturer's instructions. Cytotoxicity was measured using a microplate reader (Infinite M200 Pro; TECAN) at 490 nm.

[8] = test system: HIF-1α; assay: Immunofluorescence staining of intranuclear HIF-1α; format: cell-based, human; conditions: A549 cells, hypoxia 4 h, immunofluorescence (FIG. 4b)
Description: Cells were seeded at a density of 2 × 10^4 - 3 × 10^4 cells/well on coverslips of 4-well plates and cultured for 24 h. For HIF-1α staining, A549 cells were treated with various compounds and incubated under normoxia or hypoxia conditions for 4 h. […] Next, the cells were fixed with 4% paraformaldehyde and permeabilized with 1% Triton X-100. The fixed cells were blocked with phosphate-buffered saline (PBS) containing 3% bovine serum albumin (BSA) and then incubated with primary antibodies overnight. After incubation, the cells were incubated with secondary antibodies for 1 hour and their nuclei were stained using DAPI. The stained cells were visualized using a confocal microscope (Leica TCS SP5 II Dichroic/CS, Leica, Germany).

[9] = test system: HIF-1α target genes VEGF, GLUT1, CXCR4, and CA9; assay: Real-time qRT-PCR of HIF-1α target gene mRNA; format: cell-based; conditions: hypoxia (FIG. 4c)
Description: Total RNA was isolated using TRIzol Reagent (Invitrogen). The isolated RNA was used to synthesize cDNA using ReverTra Ace qPCR RT Master Mix (TOYOBO, Osaka, Japan) according to the manufacturer's protocol. The synthesized cDNA was mixed with gene-specific primers. Amplification real-time polymerase chain reaction (PCR) was performed using SYBR Green PCR Master Mix (Applied Biosystems, CA, USA). The heat cycle proceeded as follows: 50 °C for 2 min, 95 °C for 10 min, 40 cycles of denaturation at 95 °C for 15 s, and annealing at 60 °C for 1 min. Mean cycle threshold values were used to calculate mRNA expression with normalization to β-actin as an internal control.

[10] = test system: HIF-1α target genes VEGF, GLUT1, CXCR4, and CA9; assay: Western blot analysis of HIF-1α target gene protein levels; format: cell-based; conditions: hypoxia, compared to vehicle control group (FIG. 4d)
Description: as §2

[11] = test system: Notch1, and NICD; assay: Western blot analysis of VEGF-induced Notch1 and NICD protein levels; format: cell-based, human; conditions: HUVECs (FIG. 5a)
Description: as §2

[12] = test system: DLL4; assay: Immunofluorescence staining of DLL4 in endothelial cells; format: cell-based, human; conditions: hypoxia, immunofluorescence (FIG. 5b)
Description: (§3) Cells were seeded at a density of 2 × 10^4 - 3 × 10^4 cells/well on coverslips of 4-well plates and cultured for 24 h. For HIF-1α staining, A549 cells were treated with various compounds and incubated under normoxia or hypoxia conditions for 4 h. For Ki-67 and DLL4 staining, EA.hy926 cells were treated with the same compounds and maintained under VEGF (20 ng/mL) treatment. Next, the cells were fixed with 4% paraformaldehyde and permeabilized with 1% Triton X-100. The fixed cells were blocked with phosphate-buffered saline (PBS) containing 3% bovine serum albumin (BSA) and then incubated with primary antibodies overnight. After incubation, the cells were incubated with secondary antibodies for 1 hour and their nuclei were stained using DAPI. The stained cells were visualized using a confocal microscope (Leica TCS SP5 II Dichroic/CS, Leica, Germany).

[13] = test system: Ki-67; assay: Immunofluorescence staining of Ki-67 in endothelial cells; format: cell-based, human; conditions: hypoxia
Description: as §3

[14] = test system: EA.hy926 cells; assay: Wound-healing migration assay; format: cell-based, human
Description: EA.hy926 cells were seeded at a density of 4 × 10^4 cells/well in 12-well plates and incubated for 24 hours. The cells were starved overnight in a serum-free medium and treated with mitomycin C (0.5 µg/mL) for 1 h. When confluent, a wound was made with a pipette tip and the cells were washed with a serum-free medium to remove cell debris. Next, the plates were treated with a conditioned medium collected from HEK293T cell cultures under hypoxia conditions treated with steppogenin. Wound closure was monitored and photographs were taken at 0 h and 8 h. Cell migration was measured by calculating the wound area between 0 h and 8 h.

[15] = test system: EA.hy 926 cell; assay: Spheroid sprouting assay; format: cell-based, human; conditions: VEGF treatment, 2 days (FIG. 5d)
Description: EA.hy 926 cell suspension (5×10^3 cells) was distributed on the lid of a 100 mm dish using a hanging-drop method and maintained for 24 hours. The next day, spheroids were harvested and mixed with Methocel stock solution containing 20% FBS. Next, spheroids containing Methocel solution were seeded in 24-well plates. After incubation at 37°C for 30 minutes, VEGF or steppogenin was added to the polymerized Methocel solution and incubated for 2 days.

[16] = 17-AAG 25 mg/kg, steppogenin 2 mg/kg
[17] = ECs, VEGF treatment, screening (FIG. 2c)
[18] = immunohistochemical staining, compared to control group, 17-AAG 25 mg/kg, steppogenin 2 mg/kg (FIG. 6c)
[19] = tumor tissues, steppogenin 2 mg/kg (FIG. 6e)

In the case of C=CCNC1=C2C[C@@H](C)C[C@H](OC)[C@H](O)[C@@H](C)/C=C(\C)[C@H](OC(N)=O)[C@@H](OC)/C=C\C=C(/C)C(=O)NC(=CC1=O)C2=O [Compound 17-AAG, tanespimycin, reference compound], the “average body weights between the groups during the administration period” value [1, 16] is reported as “no significant difference”.

With O=C1C[C@@H](c2ccc(O)cc2O)Oc2cc(O)cc(O)c21 [steppogenin, (2S)-2-(2,4-dihydroxyphenyl)-5,7-dihydroxy-2,3-dihydrochromen-4-one] the dose-dependent cell viability [2] was “not altered”, the HRE-luciferase reporter activity ([3]; 0.1 to 10 µM, dose-dependent, hypoxia (FIG. 3c)) was “significantly inhibited” and the “HRE-luciferase activity compared to the hypoxic vehicle (DMSO) control group” value ([3]; HEK293T cells, hypoxia 24 h, screening (FIG. 2a)) was under 70%. For the same molecule, the IC50 ([3]; Homo sapiens, 72 h, HRE-luciferase reporter, hypoxia (FIG. 3d), read-out: half-maximal inhibitory concentration (IC50) for HIF-1α activity) was 560 ± 43 nM, the HIF-1α protein levels ([4]; A549, hypoxia) was “significantly inhibited” and the HIF-1α protein levels ([4]; ARPE19, hypoxia) was “significantly inhibited”. The HIF-1α protein expression ([4]; HEK293T cells, hypoxia, screening of selected compounds (FIG. 2b)) was “inhibited”, the HIF-1α protein levels ([4]; HEK293T, hypoxia) was “significantly inhibited” and the DLL4-luciferase reporter activity ([5]; 0.3 to 10.0 µM, VEGF-treated (FIG. 3e)) was “significantly reduced”. The “DLL4 luciferase activity induced by VEGF” value [5, 17] was “significantly suppressed”, the IC50 ([5]; Homo sapiens, EA.hy 926, EA.hy926 cells (FIG. 3f)) was 8.46 ± 1.08 µM and the “DLL4 protein level induced by VEGF” value [6, 17] was “significantly suppressed”. For the same molecule, the “VEGF-induced DLL4 protein levels” value ([6]; HUVECs (FIG. 5a)) was “dose-dependently reduced”, the cytotoxicity [7] was “not altered” and the “intranuclear expression of HIF-1α” value [8] was “decreased”. For the same molecule, the “mRNA expression of CA9” value [9] was “inhibited”, the “mRNA expression of CXCR4” value [9] was “inhibited” and the “mRNA expression of GLUT1” value [9] was “inhibited”. For the same molecule, the “mRNA expression of VEGF” value [9] was “inhibited”, the “protein levels of CA9” value [10] was “suppressed” and the “protein levels of CXCR4” value [10] was “suppressed”. The “protein levels of VEGF” value [10] was “suppressed”, the “VEGF-induced NICD protein levels” value [11] was “dose-dependently reduced” and the “VEGF-induced Notch1 protein levels” value [11] was “dose-dependently reduced”. For the same molecule, the “DLL4 expression in ECs” value [12] was “dramatically suppressed”, the “level of Ki-67, a cell proliferation marker” value [13] was “decreased” and the wound closure ([14]; HUVECs, hypoxia, 0 h to 8 h (FIG. 5c)) was “significantly reduced”. The “number of migrating cells” value ([14]; hypoxia (FIG. 5c)) was “significantly reduced”, the “germination ability (number of germinations) in 3D EC spheroid cultures” value [15] was “significantly inhibited” and the “average body weights between the groups during the administration period” value [1, 16] was “no significant difference”. For the same molecule, the tumor growth ([1]; 17-AAG 25 mg/kg, steppogenin 2 mg/kg, intraperitoneal, days 7, 9, 11, 13, 15 (FIG. 6a)) was “significantly inhibited”, the “HIF-1α expression level in tumors” value [1, 18] was “significantly reduced” and the “hypoxic region in tumors” value [1, 18] was “significantly reduced”. For the same molecule, the “microvessel density analyzed using CD34 antibody” value ([1]; steppogenin 2 mg/kg, compared to control tissue (FIG. 6d)) was “significantly reduced”, the “infiltration of CD3+ T cells” value [1, 19] was “significantly increased” and the “ratio of CD8+ to CD4+ T cells in tumors” value [1, 19] was “decreased”.
